The subject of data set [1] is BMP-6/ALK2/Hepcidin pathway. In words: ALK2 off-target assay, hepcidin mRNA in HepG2 hepatocytes. Particulars: HepG2, 40 ng/ml BMP-6, 3 h; read-out: IC50, hepcidin mRNA expression. It is filed as cell-based, human. As for the experimental part:
In this study, LDN214117 (an ALK2 inhibitor available from Selleck Chemicals S7627) was included as a positive control, and vactosertib (an ALK5 inhibitor available from MedChem Express HY-19928) was included as a negative control.
HepG2 human hepatocytes (ATCC HB-8065) were seeded in EMEM (ATCC30-2003)+10% FBS in 96-well plate and allowed to grow overnight at 5% CO2 at 37° C. The next day, cells were pre-treated with selected compounds (Compound 01, 04 or 05) or one of the control compounds at various concentrations, or with vehicle (DMSO) for one hour. Cells were then stimulated with recombinant human BMP-6 (R&D Systems 507-BP-020) at a final concentration of 40 ng/ml, in the presence of test compound or DMSO for three hours. A no-BMP-6 stimulation condition was included for baseline hepcidin level measurement.
Hepcidin mRNA expression was measured by real-time RT-PCR with Cells-to-CT 1-Step TaqMan Kit (ThermoFisher A25603) following manufacturer's instructions. GAPDH levels were measured, and served as a normalization control. Hepcidin primer: TaqMan HAMP-FAM/MGB 20×(ThermoFisher 4331182); GAPDH primer: TaqMan GAPDH-VIC/MGB 20×(ThermoFisher 4326317E). Delta-delta Ct method was used to obtain relative Hepcidin expression.
The selected compounds and control compounds LDN214117 and vactosertib were tested at drug concentrations of 20 micromolar to 1.22 nanomolar at 4-fold serial dilution. All wells contained the same DMSO concentrations. IC50 values were calculated using nonlinear regression model with GraphPad Prism software. The results of the ALK-2 off-target assay are reported in Table 3B, where “++” indicates 0.1 μM<IC50≤1 μM and “+++” indicates […].

A further data set concerns p-STAT3 (Tyr 705). Kind of data set: A549 xenograft assay, p-STAT3. Type of data set: in vivo, mice. An excerpt:
(§1) To test compounds for inhibition of in vivo on-target activity (ALK5/TGF-bR1 inhibition) as well as potential Janus Kinase (JAK) signaling off-target activity, the A549 murine xenograft model was utilized. An ALK5 inhibitor (e.g., vactosertib) is expected to reduce the amount of the TGF-beta signaling molecule phospho-SMAD-2 (pSMAD2) in the A549 xenograft cells. The TGF-beta-mediated phosphorylation of SMAD2 in A549 cells takes place at amino acid residue four hundred and sixty-five and four hundred and sixty-seven (both are serine residues). A JAK inhibitor (e.g., ruxolitinib) is expected to reduce the phosphorylation of signal transducer and activator of transcription (STAT) proteins such as STAT3 at amino acid residue 705 (tyrosine).
(§2) At eight weeks of age, female athymic nude mice (purchased from Charles River) were injected with approximately 3.5 million A549 cells (ATCC, CCL-185). Specifically, cells were harvested and resuspended in plain RPMI media (no phenol red added) and Matrigel (Corning 356237) at a one to one ratio, and two hundred-microliters were injected into the right hind flank of each mouse. Tumors were measured every three days by caliper and as tumors reached an average of seventy-eighty millimeters cubed, mice were randomized in groups of three. All compounds were resuspended in 1-methyl-2-pyrrolidinone (Sigma 494496) (10%) plus 20% Solutol (Sigma 42966) in water (90%). Vactosertib and ruxolitinib were included as controls as ALK5 signaling inhibitor and JAK signaling inhibitor, respectively. Both controls were given at seventy-five milligrams per kilogram to three mice. The drug suspensions were sonicated for fifteen minutes to generate a fine particle suspension before being given to the mice. Mice were dosed (per oral gavage) with drug at one hundred, seventy-five, fifty, or ten milligrams per kilogram, with three mice per group. A vehicle control group with three mice was used to establish the baseline level of phospho-SMAD-2 in the tumor xenograft.
(§3) Four hours after drug administration, tumors were harvested, snap frozen and stored at negative eighty degrees Celsius until further processing. The phospho-SMAD-2 levels were determined using the Bio-Plex Pro™ Phospho-Smad2 (Ser465/Ser467) Set (BioRad 171V50019M). The phospho STAT3 levels were determined using the bead/antibody set from the MILLIPLEXMAP STAT Cell Signaling Magnetic Bead 5-Plex Kit (Millipore 48-610MAG). Both phospho SMAD-2 levels and phospho STAT3 levels were normalized to ß-Tubulin (MILLIPLEX MAP ß-Tubulin Total Magnetic Bead MAPmate™, Millipore 46-713MAG) or GAPDH (MILLIPLEX MAP GAPDH Total Magnetic Bead MAPmate™, Millipore 46-667MAG) levels from each sample. All analytes were analyzed in a multiplex fashion with the Bio-Plex Pro Cell Signaling Reagent Kit (BioRad 171304006M). Briefly, frozen tumor (fifteen to thirty milligrams) was lysed in 100 μl lysis buffer, processed in bead mill tube, and centrifuged. The resulting lysate was used at 1:50 dilution for the assay according to the manufacturer's instructions. Bead suspension was analyzed using the Luminex system (MAGPIX).

The test system of data set [2] is phospho-SMAD-2 (Ser465/Ser467). In words: A549 xenograft assay, p-SMAD2. Particulars: 75 mg/kg per oral gavage, tumors 4 h after dosing. It is filed as in vivo, mice.
Excerpt: as §1, §2, §3

A further data set concerns JAK signaling. In words: JAK selectivity assay, HEK blue IL-12 reporter. Type of data set: cell-based. The note with it: 12.5 ng/ml IL-12, 24 h. As for the experimental part:
The cells were purchased from Invivogen (Catalog Nr: hkb-il12) and maintained according to vendor instructions. On the day of the experiment, cells were harvested by repeated tapping of the flask to shake loose the cells attached to the bottom of the flask. Then, cells were harvested, washed and resuspended in DMEM media supplemented with 10% fetal calf serum. 30 Microliters of cell suspension was seeded into a 384-well tissue culture-coated plate containing approximately 10,000 total cells. […] Using the ECHO “Dose Response” software, the test compound was added in duplicate wells with a 3-fold dilution curve. DMSO was back-filled to normalize the DMSO across all wells. […] After 30 minutes of incubation at room temperature, the optical density was measured at 620 nanometer using the Perkin Elmer Envision plate reader. A color change can be detected at this wavelength when secreted alkaline phosphatase, which is triggered by IL-12 signaling, is present in the supernatant. […]

Data set [3] has as its system TGF-β1-mediated αSMA expression. In words: Fibroblast to myofibroblast transformation (FMT) assay. The note with it: for IC50 / pIC50: Homo sapiens, Fibroblast.
Method: (§4) To test the ability of selected compounds to inhibit the TGF-β1-dependent transition of fibroblasts to myofibroblasts in a relevant disease model of IPF, an FMT assay was performed using lung fibroblasts from IPF patients. In this assay, the transition of fibroblasts to myofibroblasts is determined by the expression of the biomarker alpha smooth muscle actin (α-SMA).
(§5) Primary human bronchial fibroblasts derived from IPF patients were seeded on day zero and the media was refreshed on day two. On day five, selected compounds or controls were added at an eight-point concentration response curve starting at 10 μM (semi-log dilutions). Each drug concentration condition was evaluated in biological duplicates. […] Seventy-two hours following TGF-beta addition, the cells were fixed with formaldehyde. High content imaging evaluating cell number using the nuclear stain DAPI as well as the expression of a-SMA was performed. The following controls were run alongside the selected compounds: vactosertib and the approved IPF drug nintedanib (at an eight-point, semi-log curve with 10 μM starting concentration). As a negative control 0.1% DMSO was also used, matching the DMSO concentration in treated wells. The following calculations were used to determine cell number as well as percent inhibition (PIN) of alpha SMA expression:
(§6) • Segmentation and quantification of αSMA immunoreactivity by an HCA algorithm, with density×area (D×A) output • Data normalization of raw αSMA (D×A) to percentage inhibition (PIN) values, on a plate-to-plate basis
(§7) • DAPI fluorescence applied for HCA-based quantification of the number of imaged cells, on a plate-to-plate basis
(§8) [formula] • μn is the average numbers of nuclei of the vehicle control (TGF-β1+0.1% DMSO) • Xi is the compound number of nuclei
Data set [4] shares this test system. Particulars: human, 73 h.
Method: as §4, §5, §6, §7, §8

The pIC50 is the negative decadic logarithm of the IC50, by convention in mol/L.

The structures appear in SMILES notation. pIC50: −log10 of the molar value. Read-outs that look alike come from different tables or passages of the source.

On to `COc1cc(-c2cc(-c3ccc(N4CCNCC4)cc3)cnc2C)cc(OC)c1OC` [LDN214117, reference compound], for which the pIC50 in data set [1] is 6.00 to 7.00.

In the case of `N#CC[C@H](C1CCCC1)n1cc(-c2ncnc3[nH]ccc23)cn1` [Ruxolitinib, ruxolitinib, reference compound], the “Average % p-STAT3 (Tyr 705) of vehicle” value in the data set on p-STAT3 (Tyr 705) (75 mg/kg per oral gavage, tumors 4 h after dosing) was 10%. In the data set with p-STAT3 (Tyr 705) (75 milligrams per kilogram), the “inhibition of the phosphorylation of STAT3 in tumor samples” value was 90%. Also, the “Average % p-SMAD2 (Ser 465/467) of vehicle” value in data set [2] worked out at 120%. In addition, the pIC50 in the data set with JAK signaling is 7.51.

Take `COC(=O)c1ccc2c(c1)NC(=O)/C2=C(\Nc1ccc(N(C)C(=O)CN2CCN(C)CC2)cc1)c1ccccc1` [Nintedanib, nintedanib, reference compound]: the IC50 was 833 nM in data set [3] (read-out: Average IC50 (nM), average of donors IPF03, IPF06, IPF08); 631 nM in data set [3] (read-out: pIC50 αSMA, donor IPF03 (converted)); 1580 nM in data set [3] (read-out: pIC50 αSMA, donor IPF06 (converted)); 398 nM in data set [3] (read-out: pIC50 αSMA, donor IPF08 (converted)). Further, the negative-log IC50 (pIC50) in data set [3] (read-out: IC50 αSMA, donor IPF03) was 6.22; in data set [3] (read-out: IC50 αSMA, donor IPF06), 5.82; in data set [3] (read-out: IC50 αSMA, donor IPF08), 6.40. For the same compound, the entries for the “Max PIN (%)” value in data set [3] (donor IPF03), in data set [3] (donor IPF06) and in data set [3] (donor IPF08) were 90%, 104% and 94%, respectively. In data set [4], this compound gave a Potentially toxic concentration of 5.0.

Values taken from US20240197729A1, “ALK-5 Inhibitors and Uses Thereof” (Sumitomo Pharma Oncology, Inc., priority 2021, published 2024).
